Tests used:
[1] = tested on: mouse; details: Combined chronic toxicity/carcinogenicity; other; Oral; Feed; dose end: 104 week; group: systemic; systemic / pathology microscopic / blood / leukemia + systemic / pathology microscopic / blood / lymphoma nos + systemic / pathology …
[2] = tested on: mouse; details: Subchronic oral toxicity in rodents, other, Feed, dose end: 13 week, group: systemic, systemic / clinical chemistry / [other] / [other] + systemic / clinical chemistry / alderin epoxidase / alderin epoxidase + systemic / …
[3] = tested on: rat; details: Other (NonGuideline or Guideline Not Listed); sprague dawley; Oral; Gavage/Intubation; dose end: 1 day; group: cannot be grouped; systemic / in life observation / clinical signs / salivation + systemic / in life observation / clinical signs / urogenital staining
[4] = tested on: dog; details: Subchronic oral toxicity in nonrodent, beagle, Gavage/Intubation, dose end: 14 week, group: systemic
[5] = tested on: rabbit; details: Sub-acute repeat dose toxicity, Oral, Gavage/Intubation, dose end: 5 day, group: systemic
[6] = tested on: rabbit; details: Sub-acute repeat dose toxicity; Oral; Gavage/Intubation; dose end: 5 day; group: systemic; systemic / in life observation / food consumption / food consumption
[7] = tested on: rat; details: Subchronic oral toxicity in rodents, wistar, [Not Specified], dose end: 6 month
[8] = tested on: rat; details: Prenatal developmental toxicity study, sprague dawley, Oral, Gavage/Intubation, dose end: 15 GD
[9] = tested on: rat; details: Chronic toxicity; wistar; Oral; Feed; dose end: 92 week; group: cholinesterase; cholinesterase / cholinesterase / cholinesterase / erythrocyte cholinesterase (che) + cholinesterase / cholinesterase / cholinesterase / …
[10] = tested on: dog; details: Chronic toxicity, beagle, Oral, Feed, dose end: 52 week
[11] = systemic / clinical chemistry / chloride / chloride + systemic / clinical chemistry / phosphorus / phosphorus + systemic / clinical …
[12] = systemic / clinical chemistry / phosphorus / phosphorus + systemic / pathology microscopic / bone / [other]
[13] = systemic / in life observation / body weight / body weight + systemic / in life observation / food consumption / food consumption
[14] = systemic / in life observation / food consumption / food consumption
[15] = group: cholinesterase, cholinesterase / cholinesterase / cholinesterase / brain cholinesterase (che) + cholinesterase / cholinesterase / cholinesterase / …
[16] = group: systemic, systemic / clinical chemistry / glucose / glucose + systemic / organ weight / liver / nos + systemic / organ weight / liver / relative to …
[17] = group: systemic, systemic / organ weight / brain / nos + systemic / organ weight / kidney / nos
[18] = group: developmental, developmental / developmental malformation / bone / short
[19] = group: maternal, systemic / in life observation / body weight / body weight + systemic / in life observation / body weight / body weight gain + systemic / in…
[20] = group: cholinesterase, cholinesterase / cholinesterase / cholinesterase / plasma cholinesterase (che)
[21] = group: systemic, systemic / pathology microscopic / lymph node / hemorrhage
[22] = group: systemic, systemic / pathology microscopic / lymph node / hemorrhage + systemic / pathology microscopic / lymph node / hyperplasia

`CC(=O)O[C@]1(C(C)=O)CC[C@H]2[C@@H]3C=C(Cl)C4=CC(=O)[C@@H]5C[C@@H]5[C@]4(C)[C@H]3CC[C@@]21C` [Cyproterone acetate] was tested, and the LEL [1] was 120 mg/kg/day, the LOAEL [1] was greater than 120 mg/kg/day and the NEL [1] was less than 120 mg/kg/day. The NOAEL [1] was no less than 120 mg/kg/day, the LEL [2] was 125 mg/kg/day and the LOAEL [2] was greater than 125 mg/kg/day. The NEL [2] was less than 125 mg/kg/day and the NOAEL [2] was no less than 125 mg/kg/day.
For `Cc1ncc([C@@H](CCCCCCc2ccc3c(n2)NCCC3)CC(=O)O)cn1`, the LEL [3] was 2000 mg/kg/day, the LOAEL [3] was greater than 2000 mg/kg/day and the NEL [3] was less than 2000 mg/kg/day. It also gave an NOAEL [3] of no less than 2000 mg/kg/day, an LOAEL [4, 11] greater than 45 mg/kg/day and an NOAEL [4, 11] of no less than 45 mg/kg/day. For the same compound, the LEL [4, 12] was 5 mg/kg/day and the NEL [4, 12] was less than 5 mg/kg/day.
With `O=C(N[C@@H](Cc1ccccc1)[C@@H](O)C(=O)N1C[C@@H](O)[C@@H](O)C1)c1cc2cc(Cl)ccc2[nH]1` [Ingliforib] the LOAEL [5, 13] was greater than 500 mg/kg/day, the NOAEL [5, 13] was no less than 500 mg/kg/day and the LEL [5, 14] was 50 mg/kg/day. The NEL [5, 14] was less than 50 mg/kg/day, the LEL [6] was 250 mg/kg/day and the LOAEL [6] was greater than 500 mg/kg/day. It also gave an NEL [6] of less than 250 mg/kg/day and an NOAEL [6] of no less than 500 mg/kg/day.
`COP(=S)(OC)Oc1ccc([N+](=O)[O-])c(C)c1` [Fenitrothion] showed an LEL [7, 15] of 2 mg/kg/day, an LOAEL [7, 15] of 9.16 mg/kg/day and an NEL [7, 15] of 0.64 mg/kg/day. It also gave an NOAEL [7, 15] of 1.83 mg/kg/day, an LOAEL [7, 16] of 2 mg/kg/day and an NOAEL [7, 16] of 0.64 mg/kg/day. For the same compound, the LEL [7, 17] was 0.59 mg/kg/day, the NEL [7, 17] was less than 0.59 mg/kg/day and the LEL [8, 18] was 25 mg/kg/day. The LOAEL [8, 18] was 25 mg/kg/day, the NEL [8, 18] was 8 mg/kg/day and the NOAEL [8, 18] was 8 mg/kg/day. The LEL [8, 19] was 25 mg/kg/day, the LOAEL [8, 19] was 25 mg/kg/day and the NEL [8, 19] was 8 mg/kg/day. It also gave an NOAEL [8, 19] of 8 mg/kg/day, an LEL [9] of 0.27 mg/kg/day and an LOAEL [9] of 0.27 mg/kg/day. The NEL [9] was 0.128 mg/kg/day, the NOAEL [9] was 0.128 mg/kg/day and the LEL [10, 20] was 0.25 mg/kg/day. It also gave an LOAEL [10, 20] of 0.25 mg/kg/day, an NEL [10, 20] of 0.125 mg/kg/day and an NOAEL [10, 20] of 0.125 mg/kg/day. For the same compound, the LEL [10, 21] was 0.25 mg/kg/day, the LOAEL [10, 21] was 0.25 mg/kg/day and the NEL [10, 22] was 0.125 mg/kg/day. For the same compound, the NOAEL [10, 22] was 0.125 mg/kg/day.

Source: EPA's ToxRefDB 2
